We go through four compounds from patent US7253159B2, “Methods and compositions for immunomodulation using CD1 antigens” (The Brigham and Women's Hospital, Inc., priority 2003, dated 2007).

One data set has as its system CD1a-restricted T cells. Kind of data set: CD1a-restricted T cell activation assay (CD8-2 T cell line). The format is cell-based.
Data set [1] relates to CD1a-restricted T cell lines (J.RT-3/CD8-2 cells). The format is cell-based. The note with it: FIG. 7, comparison between homologs.
The nature of data set [2]: Iron-bound or unbound form detected by mass spectrometry. The format is physicochemical. The note with it: mass spectrometry: [M+Fe−2H]+ at m/z 923.5 or proton adduct at m/z 838.6. The text has this:
The newly discovered antigens share some structural homology to mycobactin siderophores but lack two hydroxyl groups present in mycobactins, which confer upon mycobactins their ability to bind iron.

Data set [3] concerns J.RT-3 T lymphoblastoid cells / CD1a. Format: cell-based.
A further data set deals with CD1b transfectants. Format: cell-based. The following applies: test for mitogen effects.
A further data set concerns polyclonal T cells. Kind of data set: Activation of polyclonal T cells. The note with it: test for mitogen effects. Format: cell-based.
Another data set has as its system CD1c transfectants. Format: cell-based. The note with it: test for mitogen effects.

With mycobactin [reference compound], the “CD1a-restricted T cell response (recognition by T cells)” value with CD1a-restricted T cells was “did not stimulate”. Further, the “T cell response (ability to activate T cells)” value in data set [1] is recorded as “not recognized”. Besides, the “form detected (iron-bound or unbound)” value in data set [2] is “iron-bound form”.

Regarding `CCCCCCCCCCCCCCC/C=C\C(=O)NCCCCC(NC(=O)C1(C)COC(c2ccccc2O)=N1)C(=O)OC(C)CC(=O)NC1CCCCNC1=O` (stereo not drawn) [DDM838, didehydroxymycobactin], the “calcium flux (activation)” value in data set [3] ([…], Fura Red and Fluo-4, flow cytometry) is “Strong calcium flux”. Besides, the “activation (calcium flux) in control settings” value in data set [3] (antigen, TCR or CD1a omitted, or cells not subjected to centrifugation (spin)) is recorded as “No activation”. Besides, in the data set on CD1b transfectants, the “activation with CD1b transfectants” value is recorded as “not above to activate”. The “activation of polyclonal T cells” value with polyclonal T cells is recorded as “not above to activate”. Also, the “T cell response (ability to activate T cells)” value in data set [1] was “most potent”. Besides, the “activation with CD1c transfectants” value in the data set with CD1c transfectants is “not above to activate”. For the same compound, in data set [2], the “form detected (iron-bound or unbound)” value was “unbound form”.

As to `CCCCCCCCCCCCCCCCCC(=O)NCCCCC(NC(=O)C1(C)COC(c2ccccc2O)=N1)C(=O)OC(C)CC(=O)NC1CCCCNC1=O` (stereo not drawn) [DDM812], in data set [1], the “T cell response (ability to activate T cells)” value is reported as “weaker ability to activate T cells”.

Consider `CCCCCCCCCCCCCCCCCCCC(=O)NCCCCC(NC(=O)C1(C)COC(c2ccccc2O)=N1)C(=O)OC(C)CC(=O)NC1CCCCNC1=O` (stereo not drawn) [DDM840], for which, in data set [1], the “T cell response (ability to activate T cells)” value is “weaker ability to activate T cells”.
